In patent publication US5962534A, “Regulating gene expression using retinoids with CH2 OH or related groups at the side chain terminal position” (Cornell Research Foundation, Inc., priority 1997, dated 1999):
Read-outs that look alike come from different tables or passages of the source.

How the values were obtained:
[1] = system: advanced head and neck cancer; assay: Treatment of patients with advanced head and neck cancer; format: in vivo, human; settings: oral, 100 mg/square meter per day; for survival beyond the median: and/or reduced tumor burden
From the text: Current systemic chemotherapy regimens are unable to prolong survival of patients with advanced head and neck cancer.

RAR-α = target: T1, RAR-α (Mus musculus, UniProt P11416); assay: Competitive binding of 3H-all-trans-retinoic acid to RAR-α; settings: concentration to inhibit 50% binding of 3H-all-trans-retinoic acid (10 nM); mean ± SD, at least 3 replicate experiments
T1 construct: expressed in transfected cells; host or cells: COS-1
T1 sequence (P11416 1-462): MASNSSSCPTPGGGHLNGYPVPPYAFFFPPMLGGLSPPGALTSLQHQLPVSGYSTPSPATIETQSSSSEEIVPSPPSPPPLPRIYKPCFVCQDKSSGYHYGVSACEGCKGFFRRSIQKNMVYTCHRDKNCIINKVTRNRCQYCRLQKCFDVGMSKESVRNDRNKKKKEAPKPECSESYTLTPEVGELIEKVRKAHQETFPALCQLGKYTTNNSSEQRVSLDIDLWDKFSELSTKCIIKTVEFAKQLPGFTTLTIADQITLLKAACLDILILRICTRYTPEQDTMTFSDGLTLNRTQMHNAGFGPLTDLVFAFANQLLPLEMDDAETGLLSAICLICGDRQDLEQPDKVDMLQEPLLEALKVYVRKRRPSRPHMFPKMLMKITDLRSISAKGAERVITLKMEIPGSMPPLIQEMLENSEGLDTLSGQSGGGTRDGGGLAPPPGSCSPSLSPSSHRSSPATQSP
Method: (§6) Retinoids were assayed for their ability to bind members of the family of the retinoic acid receptors, the RARs, as follows:
(§7) COS-1 cells were transfected by DEAE-dextran with pSG5 expression vectors containing cDNAs for mouse RARs α, β, or γ or RXRs α, β, or γ. […] Nucleosol or cytosol fractions were prepared as described in Nervi, C., et al (30) and Nervi, C., et al (31) and stored at -70° C. until use. Aliquots of nucleosol or cytosol were incubated in nuclei lysis buffer as described in Nervi, C., et al (30) with tritiated ligands for 4 h at 4° C. […] For competitive binding assays, the incubations were performed with increasing concentrations of unlabeled competing ligand and a fixed concentration of the radioligand (10 nM ^3 H-retinoic acid). In saturation kinetic studies, incubations were performed in the presence of increasing concentrations of the indicated radioligand. For all binding assays, bound was separated from free radioactivity as described in Levin, A. A., et al (29).

RAR-β = target: T2, RAR-β (Mus musculus, UniProt P22605); assay: Competitive binding of 3H-all-trans-retinoic acid to RAR-β
T2 sequence (P22605 1-448 isoform P22605-3): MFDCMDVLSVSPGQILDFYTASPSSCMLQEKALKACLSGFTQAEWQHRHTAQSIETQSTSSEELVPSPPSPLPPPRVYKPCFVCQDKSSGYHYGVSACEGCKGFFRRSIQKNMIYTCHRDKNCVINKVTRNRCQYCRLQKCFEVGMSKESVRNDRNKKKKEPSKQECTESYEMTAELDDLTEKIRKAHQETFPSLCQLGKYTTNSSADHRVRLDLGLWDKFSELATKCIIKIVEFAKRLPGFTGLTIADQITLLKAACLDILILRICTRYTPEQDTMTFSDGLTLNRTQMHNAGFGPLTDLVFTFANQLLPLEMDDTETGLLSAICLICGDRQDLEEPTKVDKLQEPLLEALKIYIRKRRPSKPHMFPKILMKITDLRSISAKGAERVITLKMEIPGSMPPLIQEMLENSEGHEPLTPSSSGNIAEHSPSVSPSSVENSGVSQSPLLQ
Method: as §6, §7

breast cancer = assay: Treatment of patients with breast cancer; format: in vivo, human; settings: oral, 100 mg/square meter per day
F9 stem cells [2] = assay: Intracellular concentration in differentiating F9 stem cells; format: in vitro ADME, mouse; settings: calculated
[3] = system: aging or photodamaged skin; assay: Treatment of patients with aging or photodamaged skin; format: in vivo, human; settings: oral 100 mg/square meter per day or topical 10 mg per square inch per day, 4 to 8 months
Water solubility = format: physicochemical; settings: no data shown
deep (cystic) acne = assay: Treatment of patients with deep (cystic) acne; format: in vivo, human; settings: oral, 100 mg/square meter per day; for mean reduction in lesion counts: end of 3 to 6 months; for acne clearance: after discontinuation
From the text: A very prolonged remission, and potentially permanent cure can be obtained.

F9 stem cells [4] = assay: Metabolism / half-life of retinoids in F9 cells; format: in vitro ADME, mouse
Method: (§1) ^3 H-4-hydroxyretinol and ^3 H-4-oxo-retinol were purified from RA treated, differentiated F9 cells (ATCC CRL 1720) after the differentiated cells were incubated with ^3 H-retinol for 18 h. The identities of purified ^3 H-4-hydroxyretinol and ^3 H-4-oxo-retinol were verified by matching both the elution times on the HPLC and the spectra of known standards.
(§2) F9 stem cells or retinoic acid-treated cells (72 h) were cultured in the presence of 50 nM of either ^3 H-4-hydroxyretinol or ^3 H-4-oxo-retinol for different periods of time.
(§3) FIGS. 5A-5D depict HPLC analysis after incubation in the presence of 50 nM ^3 H-4-oxo-retinol for periods of time as indicated and extraction using the method described in McClean, S. W., et al (15). The results are the same in both stem and retinoic acid- treated cells.

[5] = Metabolism / half-life of retinoids in F9 cells; format: in vitro ADME, mouse; settings: mouse; 50 nM; F9 stem or differentiating cells; FIG. 5
Method: as §1, §2, §3

laminin B1 = assay: Laminin B1 gene expression in F9 stem cells by Northern blot; format: cell-based; settings: Mus musculus, F9, 72 h, read-out: Laminin B1 expression induction
From the text: (§4) Teratocarcinoma stem cells can be induced to differentiate in monolayer culture by retinoic acid over a 3-4 day period into nonmalignant endoderm cells resembling the extraembryonic endoderm of the mouse blastocyst as described in Gudas, L. J., et al (27). The F9 teratocarcinoma stem cell line is used as a model tumor cell differentiation system because F9 stem cells share similar biochemical, immunological and morphological characteristics with early mouse embryonic stem cells and additionally, large numbers of cells can be cultured and experimentally manipulated. The expression of several homeobox genes including Hoxa-1 is induced by RA in mouse teratocarcinoma cell lines as described in LaRosa, G. J., et al (34) and LaRosa, G. J., et al (35). […] See LaRosa, G. L, et al (34). Other genes such as laminin B1 are activated subsequent to the activation of Hox 1.6 by retinoic acid as described in Vasios, G. W., et al (36).

[6] = system: acute promyelocytic leukemia; assay: Treatment of acute promyelocytic leukemia patients; format: in vivo, human; settings: oral, 100 mg/square meter per day
Method: Patients with morphologic diagnostic criteria for acute promyelocytic leukemia (M3 or M3 variant subtype) by karyotyping or PCR analysis, including the […] (q22; q12-21) translocation, are treated with oral all-trans-4-oxo-retinol at a dose of 100 mg/square meter of body surface area per day. The drug is formulated in soft gelatin capsules which are administered once or twice a day to provide the dose as stated. The drug is administered for 40 to 60 days until remission induction occurs as indicated by normal karyotype, disappearance of coagulation abnormalities (e.g., increased platelet count and plasma fibrinogen level), observation of differentiation of cancer cells and the appearance of mature granulocytic markers in cell surface immunophenotyping, as indicated by reduced number of cells expressing CD33 and greater portion of cells expressing CD16. Patients with newly diagnosed disease then receive all-trans-4-oxo-retinol for 30 days after remission induction; then, either conventional consolidation therapy (e.g., cytosine arabinoside) or continued treatment with all-trans-4-oxo-retinol alone is continued. During remission induction, liver function tests are performed and serum cholesterol and triglycerides are measured twice a week and bone marrow aspiration is performed once a week until complete remission or failure is documented.

RAR-γ = target: T3, RAR-γ (Mus musculus, UniProt P18911); assay: Competitive binding of 3H-all-trans-retinoic acid to RAR-γ
T3 sequence (P18911 1-458): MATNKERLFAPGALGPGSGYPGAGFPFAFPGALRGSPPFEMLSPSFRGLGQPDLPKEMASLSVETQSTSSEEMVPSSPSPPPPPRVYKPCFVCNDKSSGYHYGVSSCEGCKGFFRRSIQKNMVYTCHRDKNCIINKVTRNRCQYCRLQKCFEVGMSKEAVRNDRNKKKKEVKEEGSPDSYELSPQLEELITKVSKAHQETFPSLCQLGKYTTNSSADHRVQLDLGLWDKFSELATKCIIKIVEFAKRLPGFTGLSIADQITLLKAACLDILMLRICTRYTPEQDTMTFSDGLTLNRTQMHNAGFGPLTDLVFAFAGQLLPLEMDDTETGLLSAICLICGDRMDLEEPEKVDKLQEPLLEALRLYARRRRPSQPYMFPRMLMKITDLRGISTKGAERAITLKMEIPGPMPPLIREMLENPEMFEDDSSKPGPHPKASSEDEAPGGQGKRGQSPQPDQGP
Method: as §6, §7

RXRs α, β, or γ = assay: Inhibition of 3H-9-cis retinoic acid binding to RXRs; design: species or system mouse; settings: for inhibition of 3H-9-cis retinoic acid binding to RXRs: data not shown
From the text: See Levin, A. A., et al (29).

Hoxa-1 = Hoxa-1 gene expression in F9 stem cells by Northern blot; format: cell-based; settings: Mus musculus, F9, 72 h, read-out: Hoxa-1 transcripts induction
From the text: as §4

psoriatic arthritis = assay: Treatment of patients with psoriatic arthritis; format: in vivo, human; settings: oral, 50 mg/square meter per day
[7] = system: RARE-β-galactosidase (F9-RARE-β-galactosidase reporter cell line); assay: Transcription of RARE-β-galactosidase in F9-RARE-β-galactosidase reporter cell line; format: cell-based; settings: Mus musculus; media lacking serum
Method: Cells were treated with different concentrations of retinoids in media lacking serum, harvested and assayed for β-galactosidase activity. […] The β-galactosidase activity in this cell line reflects the activation of the RARs.

[8] = system: cellular retinoic acid binding protein I (CRABP I); assay: Inhibition of all-trans-3H-retinoic acid binding to CRABP I; settings: data not shown
RARs α, β, or γ [9] = settings: Mangelsdorf et al (14); cited from earlier work
F9 stem cells [10] = settings: refs (37), (38), cited from earlier work
RARs α, β, or γ [11] = assay: Inhibition of 3H-all-trans-retinoic acid binding to RARs (stated for all subtypes together); settings: concentrations up to 50,000 nM
Method: as §6, §7

F9 stem cells [12] = assay: Metabolism of 3H-4-hydroxyretinol in F9 cells (HPLC); format: in vitro ADME, mouse; settings: besides 4-oxo-retinol; 50 nM
Method: as §1, §2
(§5) FIGS. 4A-4D depict HPLC analysis after incubation in the presence of 50 nM ^3 H-4-hydroxyretinol for periods of time as indicated and extraction using the method described in McClean, S. W., et al (15). F9 stem cells are shown in FIGS. 4A-4D to convert 4-hydroxyretinol to 4-oxo-retinol. The rate of this conversion was virtually identical in both stem and retinoic acid-treated cells. This rate was calculated to be about 20% in a period of 15 h.

[13] = as above; format: in vitro ADME, mouse; settings: mouse, f9 cells; 50 nM, 15 h; virtually identical in stem and retinoic acid-treated cells; read-out: conversion of 4-hydroxyretinol to 4-oxo-retinol
Method: as §1, §2, §5

Row | Structure (SMILES) | tumor burden, head and neck cancer [1] | survival beyond the median [1] | IC50 (RAR-α) [nM] | IC50 (RAR-β) [nM] | tumor burden, breast cancer (breast cancer) | wrinkles, smoothness, pigmented areas of skin [3] | mean reduction in lesion counts (deep (cystic) acne) | acne clearance (deep (cystic) acne) | fold induction at 1 µM (laminin B1) | IC50 (RAR-γ) [nM] | inhibition of 3H-9-cis retinoic acid binding to RXRs (RXRs α, β, or γ) | fold induction at 1 µM (Hoxa-1) | psoriatic arthritis symptoms (psoriatic arthritis) | EC50 [7] [nM] | inhibition of binding of all-trans-3H-retinoic acid to CRABP I [8] | also measured
1 | CC1=C(/C=C/C(C)=C/C=C/C(C)=C/CO)C(C)(C)CCC1=O [4-oxo-retinol, all-trans-4-oxo-retinol] | reduced tumor burden | 4-6 months | 330 ± 54 | 420 ± 110 | reduced tumor burden | fewer and reduced depth of wrinkles, increased smoothness of the skin, and a reduction in pigmented areas of the skin | greater than 85% | in some cases complete clearance occurs | 7 | 3200 ± 520 | Neither the 4-hydroxyretinol nor the 4-oxo-retinol inhibited | 25 | fewer tender joints and a decreased duration of morning stiffness | 42 | unable to inhibit | intracellular concentration (F9 stem cells [2]): approximately 85 nM; water solubility compared with all-trans-retinoic acid (Water solubility): more water soluble; half-life in F9 stem cells (F9 stem cells [4]; 50 nM, order of magnitude in words): on the order of days; metabolites of 4-oxo-retinol detected (F9 stem cells [4]; 50 nM, presumed 4-oxo-retinyl esters): small amounts of several very hydrophobic retinoids; stability in F9 stem vs differentiating cells (F9 stem cells [4]; comparison of F9 stem and differentiating cells): equally stable; induction of enzyme degrading the retinoid (F9 stem cells [4]; summary statement, vs all-trans-retinoic acid): does not induce production of enzyme which degrades it to inactive form; 4-oxo-retinoic acid formed from 4-oxo-retinol (F9 stem cells [4]; up to 15 h, 50 nM): No 4-oxo-retinoic acid was detected; half-life at 0.05 µM [5]: > 15 h; outcome of treatment in acute promyelocytic leukemia [6]: Long term cures are considered to be obtainable; inhibition of 3H-retinoic acid binding to RAR-γ, fold weaker than RAR-α and RAR-β (RAR-γ; relative to RAR-α and RAR-β, 240 min): 10 fold
2 | CC1=C(/C=C/C(C)=C/C=C/C(C)=C/C(=O)O)C(C)(C)CCC1 [RA, all-trans-retinoic acid] |  |  |  |  |  |  |  |  |  |  |  |  |  | 9 |  | binding to α-, β- and γ-retinoic acid receptors (RARs α, β, or γ [9]): binds equally well to α-, β-, and γ-retinoic acid receptors; half-life in differentiated retinoic acid-treated F9 stem cells (F9 stem cells [10]; differentiated, enzyme induced): < 3 h; half-life in F9 stem cells (F9 stem cells [10]; undifferentiated): 3 h
3 | CC1=C(/C=C/C(C)=C/C=C/C(C)=C/CO)C(C)(C)CCC1 [retinol, reference compound] |  |  |  |  |  |  |  |  | 2 |  |  | 4 |  | > 3000 |  | inhibition of all-trans-3H-retinoic acid binding to any of the RARs (RARs α, β, or γ [11]): no apparent inhibition; inhibition of 3H-9-cis retinoic acid binding to the RXRs (RXRs α, β, or γ; concentrations up to 50,000 nM): no apparent inhibition
4 | CC1=C(/C=C/C(C)=C/C=C/C(C)=C/CO)C(C)(C)CCC1O (stereo not drawn) [4-OH retinol] | reduced tumor burden | 4-6 months | 5000 ± 1400 | 3800 ± 1100 | reduced tumor burden | fewer and reduced depth of wrinkles, increased smoothness of the skin, and a reduction in pigmented areas of the skin | greater than 85% | in some cases complete clearance occurs | 3 | 3400 ± 1600 | Neither the 4-hydroxyretinol nor the 4-oxo-retinol inhibited | 9 | fewer tender joints and a decreased duration of morning stiffness | 76 | unable to inhibit | other metabolites of 4-hydroxyretinol (F9 stem cells [12]): No other metabolite; metabolised at 15 h, 0.05 µM [13]: ~20%
